Reference: paper PMC6440977, “Nucleoside analogue activators of cyclic AMP-independent protein kinase A of Trypanosoma” (Nature Communications, 2019)
“And” between values parts separate entries of the source, which are not always exact repeats. Equal values may be shown once. Read-outs that look alike come from different tables or passages of the source.

What was measured:
[1] = molecular target: T1, T. brucei PKA (Trypanosoma brucei brucei, UniProt Q9GU80); assay: In vivo PKA reporter assay (VASP Ser-157 phosphorylation, western blot); format: cell-based;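 note: T. brucei cells expressing human VASP as heterologous PKA substrate, compound exposure at 37 °C, western blot of phospho (50 kDa) versus unphosphorylated (46 kDa) VASP band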
T1 sequence (Q38DS1 entry or part of it): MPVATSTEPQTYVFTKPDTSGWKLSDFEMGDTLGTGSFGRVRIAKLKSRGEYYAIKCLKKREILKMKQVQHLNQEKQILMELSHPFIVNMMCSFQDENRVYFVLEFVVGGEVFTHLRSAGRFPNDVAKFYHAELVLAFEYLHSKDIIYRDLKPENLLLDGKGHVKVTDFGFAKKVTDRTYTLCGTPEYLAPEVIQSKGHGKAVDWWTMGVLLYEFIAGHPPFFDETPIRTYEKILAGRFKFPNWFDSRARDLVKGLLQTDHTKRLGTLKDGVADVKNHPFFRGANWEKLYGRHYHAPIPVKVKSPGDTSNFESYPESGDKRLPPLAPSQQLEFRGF
T1 sequence (Q38DR5 entry or part of it, further chain): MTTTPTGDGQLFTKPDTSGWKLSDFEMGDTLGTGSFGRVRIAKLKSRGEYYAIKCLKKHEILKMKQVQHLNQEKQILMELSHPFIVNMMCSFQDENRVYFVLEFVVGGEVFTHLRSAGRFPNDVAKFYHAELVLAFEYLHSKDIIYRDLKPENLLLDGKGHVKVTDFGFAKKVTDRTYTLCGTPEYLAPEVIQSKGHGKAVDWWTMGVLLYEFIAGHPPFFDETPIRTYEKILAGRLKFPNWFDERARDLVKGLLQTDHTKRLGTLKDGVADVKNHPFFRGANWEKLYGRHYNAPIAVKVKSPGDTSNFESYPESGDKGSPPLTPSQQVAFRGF
T1 sequence (Q9GU80 entry or part of it): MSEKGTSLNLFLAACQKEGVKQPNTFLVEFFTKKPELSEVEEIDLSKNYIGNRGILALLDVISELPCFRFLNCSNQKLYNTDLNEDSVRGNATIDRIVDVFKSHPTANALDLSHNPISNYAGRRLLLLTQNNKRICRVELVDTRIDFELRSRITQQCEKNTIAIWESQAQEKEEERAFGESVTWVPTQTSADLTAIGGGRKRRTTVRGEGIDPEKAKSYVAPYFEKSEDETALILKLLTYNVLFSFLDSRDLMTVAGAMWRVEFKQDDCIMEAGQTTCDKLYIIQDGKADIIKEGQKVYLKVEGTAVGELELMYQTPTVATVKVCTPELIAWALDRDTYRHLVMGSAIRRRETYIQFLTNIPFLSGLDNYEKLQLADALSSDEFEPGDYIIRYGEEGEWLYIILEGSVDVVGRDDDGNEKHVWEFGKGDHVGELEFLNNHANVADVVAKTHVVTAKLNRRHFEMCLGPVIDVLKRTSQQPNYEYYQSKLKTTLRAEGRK

[2] = molecular target: T. brucei PKAR-PKAC1 holoenzyme (Trypanosoma brucei, UniProt Q9GU80); assay: biochemical; format: biochemical; conditions: for In vitro kinase assay: technical replicates
Chain of T. brucei PKAR-PKAC1 holoenzyme (Q38DR5 entry or part of it): as the sequence (Q38DR5 entry or part of it, further chain) above

[3] = molecular target: T. brucei PKAR(199–499) (Trypanosoma brucei, UniProt Q9GU80); assay: biochemical; format: binding; design: Thermodynamics (ITC) -TΔS / Thermodynamics (ITC) ΔG / Thermodynamics (ITC) ΔH: unit: kcal/mol
Chain of T. brucei PKAR(199–499) (Q9GU80 entry or part of it): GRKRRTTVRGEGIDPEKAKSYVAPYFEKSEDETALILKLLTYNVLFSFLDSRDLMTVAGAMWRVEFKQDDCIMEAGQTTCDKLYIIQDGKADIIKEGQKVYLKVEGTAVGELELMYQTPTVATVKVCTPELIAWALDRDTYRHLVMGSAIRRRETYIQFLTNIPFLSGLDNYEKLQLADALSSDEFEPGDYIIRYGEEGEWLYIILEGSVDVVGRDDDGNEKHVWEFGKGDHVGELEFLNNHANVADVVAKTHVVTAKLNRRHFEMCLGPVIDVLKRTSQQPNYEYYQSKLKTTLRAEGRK

[4] = molecular target: T2, human PKARIα (Homo sapiens, UniProt P10644); assay: Binding by isothermal titration calorimetry (ITC)
T2 construct: The full length ORFs (amplified with primers introducing the respective); 6xHis followed by TEV site (N); made in house; host or cells: E. coli Rosetta D3
T2 sequence (P10644 whole entry): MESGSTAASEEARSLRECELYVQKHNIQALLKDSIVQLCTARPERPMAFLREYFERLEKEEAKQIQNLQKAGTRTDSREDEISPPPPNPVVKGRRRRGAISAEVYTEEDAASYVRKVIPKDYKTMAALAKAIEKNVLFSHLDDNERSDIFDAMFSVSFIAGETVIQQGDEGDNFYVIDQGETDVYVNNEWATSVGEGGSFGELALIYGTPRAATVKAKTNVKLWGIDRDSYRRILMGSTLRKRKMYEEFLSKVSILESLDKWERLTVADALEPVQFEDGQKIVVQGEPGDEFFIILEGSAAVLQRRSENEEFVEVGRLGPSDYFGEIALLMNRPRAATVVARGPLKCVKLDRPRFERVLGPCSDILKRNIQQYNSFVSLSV

[5] = tested on: T. brucei ∆pkar/∆pkar (pkar KO) cells; assay: microbe, parasite or virus in culture; format: cell-based, Trypanosoma brucei; conditions: for EC50: pkar KO cells
[6] = molecular target: T3, mammalian PKARIα2–2PKACα holoenzyme (Homo sapiens, UniProt P10644); assay: In vitro kinase assay with purified mammalian holoenzyme; format: biochemical, human PKARIα, mouse PKACα; conditions: for In vitro kinase assay: technical replicates
T3 construct: The full length ORFs (amplified with primers introducing the respective); made in house; host or cells: E. coli strain APE304 (adenylate cyclase-deficient)
T3 sequence (P10644 whole entry): as above

[7] = tested on: RXXS*/T* site phosphorylation; assay: Western blot of global RXXS*/T* site phosphorylation (phospho-PKA substrate antibody); format: cell-based, Trypanosoma brucei; conditions: wild type, 2 µM, 10 min
[8] = tested on: metacaspase 4 (MCA4); format: cell-based, Trypanosoma brucei; conditions: for MCA4 counts / MCA4 normalized / MCA4 fold change: 4 µM; for MCA4 normalized: normalized to PFR-A/C; for MCA4 fold change: untreated WT set to 1
[9] = tested on: PKAC1/2; format: cell-based, Trypanosoma brucei; conditions: 4 µM; for PKAC1/2 normalized: normalized to PFR-A/C; for PKAC1/2 fold change: untreated WT set to 1;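 for all read-outs here: trypanosoma brucei cells, PKAC1/2 signal from western blots read on an infrared fluorescence scanning system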
[10] = tested on: T. brucei BSF cells (WT); assay: Alamar blue cell viability assay, wild type; conditions: for EC50: wild type cells;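 for all read-outs here: trypanosomes seeded at 5×10^3 per ml and grown 72 h with compound, then resazurin 0.5 mM added for 4 h as the viability read-out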
[11] = tested on: T. brucei PKA holoenzyme (Ty1-PKAC1); format: biochemical, Trypanosoma brucei; conditions: for in vitro kinase assay [CPM], average: average of 3; for in vitro kinase assay [CPM]: independent replicates
[12] = tested on: T. brucei PKA holoenzyme (PKAR-Ty1); format: biochemical, Trypanosoma brucei; conditions: for in vitro kinase assay [CPM], average: average of 3; for in vitro kinase assay [CPM]: independent replicates
[13] = tested on: T. brucei PKA holoenzyme (HA-PKAC2); format: biochemical, Trypanosoma brucei; conditions: for in vitro kinase assay [CPM], average: average of 3; for in vitro kinase assay [CPM]: independent replicates
[14] = molecular target: T1, T. brucei PKA; conditions: ref Shalaby et al. (reference 23 in manuscript); cited from earlier work

N#Cc1cn([C@@H]2O[C@H](CO)[C@@H](O)[C@H]2O)c2ncnc(N)c12 [Toyo, 7-Cyano-7-deazaadenosine]
EC50 ([1]; VASP reporter, 15 min treatment, mean ± SD, read-out: EC50 in vivo PKA assay): 88 nM and 87.6 nM | induction of VASP phosphorylation in pkar knock out, in words ([1]; homozygous deletion of PKAR): did not induce phosphorylation of VASP | In vitro kinase assay ([2]; 0.001 µM): 0.11 U/ml and 0.14 U/ml | In vitro kinase assay ([2]; 0.01 µM): 0.16 U/ml | In vitro kinase assay ([2]; 0.02 µM): 0.18 U/ml and 0.15 U/ml | In vitro kinase assay ([2]; 0.04 µM): 0.31 U/ml and 0.25 U/ml | In vitro kinase assay ([2]; 0.08 µM): 0.3 U/ml and 0.33 U/ml | In vitro kinase assay ([2]; 0.16 µM): 0.45 U/ml and 0.4 U/ml | In vitro kinase assay ([2]; 0.31 µM): 0.58 U/ml and 0.64 U/ml | In vitro kinase assay ([2]; 0.63 µM): 0.61 U/ml and 0.73 U/ml | In vitro kinase assay ([2]; 1.25 µM): 0.71 U/ml and 0.74 U/ml | In vitro kinase assay ([2]; 2.5 µM): 0.78 U/ml and 0.82 U/ml | In vitro kinase assay ([2]; 5 µM): 0.82 U/ml and 0.75 U/ml and 4.49 U/ml and 4.39 U/ml | EC50 ([2]; kemptide phosphorylation, mean ± SD, read-out: EC50 in vitro PKA assay): 234 ± 92 nM | Kd ([3]; 298 K, mean ± SD, n=3, read-out: KD in vitro binding to PKAR (ITC)): 57 ± 25 nM | −TΔS (entropic component of binding) ([3]; ITC, mean): -0.9 kcal/mol | Thermodynamics (ITC) -TΔS ([3]; independent replicates): -2.01 and -0.373 and -0.411 | Thermodynamics (ITC) ΔG ([3]; independent replicates): -10.3 and -9.67 and -9.84 | Thermodynamics (ITC) ΔH ([3]; independent replicates): -8.26 and -9.3 and -9.43 | Molar ratio of binding (ITC) ([3]; ligand to protein, mean ± SD, n=3): 2.1 ± 0.1 | binding to purified human PKARIα, in words [4]: did not bind | IC50 ([5]; Trypanosoma brucei, 72 h, read-out: IC50 growth pkar KO): 690 ± 58 nM | EC50 ([5]; Trypanosoma brucei, read-out: EC50, Alamar blue cell viability assay, KO, individual replicate results): 941 nM | EC50 ([5]; read-out: EC50, Alamar blue cell viability assay, KO, individual replicate results): 768 nM and 560 nM and 610 nM and 492 nM and 666 nM and 791 nM | In vitro kinase assay ([6]; 0.05 µM): 0.0536 U/ml and 0.052 U/ml | In vitro kinase assay ([6]; 0.5 µM): 0.0466 U/ml and 0.0501 U/ml | In vitro kinase assay ([6]; 5 µM): 0.0571 U/ml and 0.0671 U/ml | In vitro kinase assay ([6]; 50 µM): 0.067 U/ml and 0.0605 U/ml | activation of mammalian PKARIα2–2PKACα holoenzyme, in words ([6]; up to 270-fold above EC50 for T. brucei PKA holoenzyme): did not activate | increase in global RXXS*/T* site phosphorylation [7]: 3–4 fold | MCA4 counts ([8]; WT, 12 h): 10.96 | MCA4 normalized ([8]; WT, 12 h): 7.611 | MCA4 fold change ([8]; WT, 12 h): 0.5155 | MCA4 counts ([8]; WT, 18 h): 19.07 | MCA4 normalized ([8]; WT, 18 h): 24.1392 | MCA4 fold change ([8]; WT, 18 h): 1.635 | MCA4 counts ([8]; WT, 24 h): 23.58 | MCA4 normalized ([8]; WT, 24 h): 24.8211 | MCA4 fold change ([8]; WT, 24 h): 1.681 | MCA4 abundance, in words ([8]; later time points, PKA-independent): elevated | MCA4 counts ([8]; pkar KO, 12 h): 13.45 | MCA4 normalized ([8]; pkar KO, 12 h): 0.4781 | MCA4 fold change ([8]; pkar KO, 12 h): 0.9855 | MCA4 counts ([8]; pkar KO, 18 h): 12.35 | MCA4 normalized ([8]; pkar KO, 18 h): 0.669 | MCA4 fold change ([8]; pkar KO, 18 h): 1.379 | MCA4 counts ([8]; pkar KO, 24 h): 14.17 | MCA4 normalized ([8]; pkar KO, 24 h): 0.8557 | MCA4 fold change ([8]; pkar KO, 24 h): 1.764 | MCA4 abundance, in words ([8]; wild type, 12 h post induction): decreased | PKAC1/2 counts ([9]; WT, 12 h): 34.11 | PKAC1/2 normalized ([9]; WT, 12 h): 23.6875 | PKAC1/2 fold change ([9]; WT, 12 h): 0.1712 | PKAC1/2 counts ([9]; WT, 18 h): 35.81 | PKAC1/2 normalized ([9]; WT, 18 h): 45.3291 | PKAC1/2 fold change ([9]; WT, 18 h): 0.3275 | PKAC1/2 counts ([9]; WT, 24 h): 31.4 | PKAC1/2 normalized ([9]; WT, 24 h): 33.0526 | PKAC1/2 fold change ([9]; WT, 24 h): 0.2388 | PKAC1/2 counts ([9]; pkar KO, 12 h): 38.16 | PKAC1/2 normalized ([9]; pkar KO, 12 h): 1.357 | PKAC1/2 fold change ([9]; pkar KO, 12 h): 0.08353 | PKAC1/2 counts ([9]; pkar KO, 18 h): 35.91 | PKAC1/2 normalized ([9]; pkar KO, 18 h): 1.945 | PKAC1/2 fold change ([9]; pkar KO, 18 h): 0.1198 | PKAC1/2 counts ([9]; pkar KO, 24 h): 34.95 | PKAC1/2 normalized ([9]; pkar KO, 24 h): 2.111 | PKAC1/2 fold change ([9]; pkar KO, 24 h): 0.13 | IC50 ([10]; Trypanosoma brucei, 72 h, read-out: IC50 growth WT): 739 ± 59 nM | EC50 ([10]; Trypanosoma brucei, read-out: EC50, Alamar blue cell viability assay, WT, individual replicate results): 866 nM | EC50 ([10]; read-out: EC50, Alamar blue cell viability assay, WT, individual replicate results): 746 nM and 898 nM and 614 nM and 641 nM and 510 nM and 901 nM

Nc1nc2c(ncn2[C@@H]2O[C@@H]3COP(=O)(O)O[C@H]3[C@H]2O)c(=O)[nH]1 [cGMP]
concentration at which the holoenzyme is activated [11]: ≥ 100 µM | in vitro kinase assay [CPM], PKI ([11]; 0.1 mM + 5 µM PKI(5-24), Supp Fig 3b): 1147.4 CPM | in vitro kinase assay [CPM], average ([11]; 0.1 mM, Supp Fig 3b): 13459.0 CPM | in vitro kinase assay [CPM] ([11]; 0.1 mM, Supp Fig 3b): 15124.3 CPM and 11079.5 CPM and 14173.3 CPM | in vitro kinase assay [CPM], PKI ([11]; 1 mM + 5 µM PKI(5-24), Supp Fig 3b): 3732 CPM | in vitro kinase assay [CPM], PKI ([11]; 1 mM + 5 µM PKI(5-24), Supp Fig 3c): 1928.6 CPM | in vitro kinase assay [CPM], average ([11]; 1 mM, Supp Fig 3b): 48614.9 CPM | in vitro kinase assay [CPM] ([11]; 1 mM, Supp Fig 3b): 51091.7 CPM and 52665 CPM and 42088 CPM | in vitro kinase assay [CPM], average ([11]; 1 mM, Supp Fig 3c): 18465.6 CPM | in vitro kinase assay [CPM] ([11]; 1 mM, Supp Fig 3c): 15510 CPM and 18398 CPM and 21488.7 CPM | concentration at which the holoenzyme is activated [12]: ≥ 100 µM | in vitro kinase assay [CPM], PKI ([12]; 0.1 mM + 5 µM PKI(5-24)): 1137.33 CPM | in vitro kinase assay [CPM], average ([12]; 0.1 mM): 8446.6 CPM | in vitro kinase assay [CPM] ([12]; 0.1 mM): 9140 CPM and 8772.75 CPM and 7427.05 CPM | in vitro kinase assay [CPM], PKI ([12]; 1 mM + 5 µM PKI(5-24)): 3682.78 CPM | in vitro kinase assay [CPM], average ([12]; 1 mM): 22856.7 CPM | in vitro kinase assay [CPM] ([12]; 1 mM): 17347.2 CPM and 27346.7 CPM and 23876.3 CPM | concentration at which the holoenzyme is activated [13]: ≥ 100 µM | in vitro kinase assay [CPM], PKI ([13]; 0.1 mM + 5 µM PKI(5-24)): 375.47 CPM | in vitro kinase assay [CPM], average ([13]; 0.1 mM): 2249 CPM | in vitro kinase assay [CPM] ([13]; 0.1 mM): 2477.88 CPM and 2206.3 CPM and 2062.83 CPM | in vitro kinase assay [CPM], PKI ([13]; 1 mM + 5 µM PKI(5-24)): 760.33 CPM | in vitro kinase assay [CPM], average ([13]; 1 mM): 8405.46 CPM | in vitro kinase assay [CPM] ([13]; 1 mM): 9366.36 CPM and 9774.29 CPM and 6075.73 CPM | cGMP concentration activating T. brucei PKA [14]: ≥ 20 µM
